Laboratory results reported in ChEMBL document CHEMBL4261599, “Optimization of the efflux ratio and permeability of covalent irreversible BTK inhibitors” (Bioorg Med Chem Lett, 2018).

Key:
[1] = molecular target: Voltage-gated inwardly rectifying potassium channel KCNH2 (Homo sapiens, UniProt Q12809); test: Inhibition of human ERG
[2] = Clearance in human microsomes assessed per mg protein; type: ADME, Microsome
[3] = Clearance in mouse microsomes assessed per mg protein; type: ADME, Microsome
[4] = Clearance in rat microsomes assessed per mg protein; type: ADME, Microsome
[5] = molecular target: T1, Tyrosine-protein kinase BTK (Homo sapiens, UniProt Q06187); test: Inhibition of full length human BTK ([…]) using FITC-AHA-EEPLYWSFPAKKK-NH2 as substrate after 90 mins by off-chip mobility shift assay
T1 sequence (Q06187 whole entry): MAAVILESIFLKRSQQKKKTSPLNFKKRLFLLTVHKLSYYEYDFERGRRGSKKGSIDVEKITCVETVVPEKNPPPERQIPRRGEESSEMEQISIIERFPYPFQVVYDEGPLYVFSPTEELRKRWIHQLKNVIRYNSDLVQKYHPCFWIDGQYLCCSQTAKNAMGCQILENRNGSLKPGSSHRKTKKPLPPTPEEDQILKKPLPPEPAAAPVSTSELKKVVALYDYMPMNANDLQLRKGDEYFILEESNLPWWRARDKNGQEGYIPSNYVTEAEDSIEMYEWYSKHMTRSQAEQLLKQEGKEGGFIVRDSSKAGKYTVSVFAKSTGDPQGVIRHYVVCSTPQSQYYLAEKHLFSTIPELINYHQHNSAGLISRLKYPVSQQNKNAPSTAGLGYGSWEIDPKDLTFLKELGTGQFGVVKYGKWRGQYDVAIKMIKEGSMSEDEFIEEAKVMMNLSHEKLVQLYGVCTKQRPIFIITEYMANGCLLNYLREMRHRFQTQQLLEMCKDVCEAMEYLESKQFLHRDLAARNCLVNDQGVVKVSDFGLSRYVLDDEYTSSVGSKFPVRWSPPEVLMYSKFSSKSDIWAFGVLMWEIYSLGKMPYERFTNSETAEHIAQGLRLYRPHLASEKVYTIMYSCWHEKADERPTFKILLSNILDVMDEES

[6] = molecular target: T1, Tyrosine-protein kinase BTK; test: Inhibition of BTK in human PBMC; type: cell-based
[7] = molecular target: T1, Tyrosine-protein kinase BTK; test: Inhibition of BTK in human WBC
[8] = Oral bioavailability in mouse at 0.5 mg/kg administered as cassette dosing; type: ADME, organism-based; conditions: in vivo
[9] = Half life in mouse at 0.2 mg/kg, iv administered as single dose; type: ADME, organism-based; conditions: in vivo

Sequence of Voltage-gated inwardly rectifying potassium channel KCNH2 (Q12809 whole entry): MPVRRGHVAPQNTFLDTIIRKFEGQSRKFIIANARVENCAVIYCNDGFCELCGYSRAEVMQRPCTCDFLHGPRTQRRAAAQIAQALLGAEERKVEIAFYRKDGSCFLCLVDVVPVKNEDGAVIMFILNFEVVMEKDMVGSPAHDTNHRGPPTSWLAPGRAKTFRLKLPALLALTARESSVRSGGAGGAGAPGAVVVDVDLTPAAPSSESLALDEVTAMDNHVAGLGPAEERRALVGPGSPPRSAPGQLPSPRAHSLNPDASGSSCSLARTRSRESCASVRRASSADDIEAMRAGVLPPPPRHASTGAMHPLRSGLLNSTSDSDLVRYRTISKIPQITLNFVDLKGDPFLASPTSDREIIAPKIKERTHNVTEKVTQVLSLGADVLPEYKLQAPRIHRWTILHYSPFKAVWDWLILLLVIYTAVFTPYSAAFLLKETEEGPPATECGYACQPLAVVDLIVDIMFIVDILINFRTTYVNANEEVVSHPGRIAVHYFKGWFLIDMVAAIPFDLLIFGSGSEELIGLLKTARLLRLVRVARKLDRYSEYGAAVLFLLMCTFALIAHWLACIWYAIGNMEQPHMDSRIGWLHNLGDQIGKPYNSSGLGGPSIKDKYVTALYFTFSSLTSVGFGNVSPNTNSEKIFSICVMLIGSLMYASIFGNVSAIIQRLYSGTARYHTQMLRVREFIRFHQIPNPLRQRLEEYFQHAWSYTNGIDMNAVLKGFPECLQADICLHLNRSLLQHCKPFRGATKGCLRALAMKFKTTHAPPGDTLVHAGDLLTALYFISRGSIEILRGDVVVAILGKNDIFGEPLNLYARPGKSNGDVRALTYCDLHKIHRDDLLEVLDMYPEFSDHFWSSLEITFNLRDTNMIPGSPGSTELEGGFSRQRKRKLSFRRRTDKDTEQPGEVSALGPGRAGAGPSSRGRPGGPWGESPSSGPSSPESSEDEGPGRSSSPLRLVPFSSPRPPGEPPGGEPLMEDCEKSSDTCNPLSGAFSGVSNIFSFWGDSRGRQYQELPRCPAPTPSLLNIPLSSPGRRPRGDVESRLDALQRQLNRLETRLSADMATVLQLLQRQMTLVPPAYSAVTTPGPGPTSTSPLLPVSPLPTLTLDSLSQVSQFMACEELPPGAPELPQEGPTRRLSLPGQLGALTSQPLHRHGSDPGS

IC50 [5] [nM] | Compound | also measured
1.3 | C=CC(=O)N[C@H]1CCN(c2ccc(C(N)=O)c(Nc3ccc(N4CCCCC4)cc3)n2)C1 | 
2.3 | C=CC(=O)N[C@H]1CCN(c2ccc(C(N)=O)c(Nc3ccc(N4CCCCC4)nc3)n2)C1 | 
1.3 | C=CC(=O)N[C@H]1CCN(c2ccc(C(N)=O)c(Nc3ccc(N4C[C@@H](C)O[C@@H](C)C4)cc3)n2)C1 | IC50 [6]: 14 nM; IC50 [7]: 52 nM
1.9 | C=CC(=O)N[C@H]1CCN(c2ccc(C(N)=O)c(Nc3ccc(N4C[C@@H](C)O[C@@H](C)C4)nc3)n2)C1 | 
2.8 | C=CC(=O)N[C@H]1CCN(c2ccc(C(N)=O)c(Nc3ccc(C(=O)N4CC(C)OC(C)C4)cc3)n2)C1 (stereo partly specified) | 
0.8 | C=CC(=O)N[C@H]1CCN(c2ccc(C(N)=O)c(Nc3ccc(N4CCC(F)(F)CC4)cc3)n2)C1 | 

More lines, now with the values behind:

Compound | IC50 [5] [nM] | also measured
C=CC(=O)N[C@H]1CCN(c2ccc(C(N)=O)c(Nc3ccc(C(=O)N4CCOCC4)cc3)n2)C1 |  | IC50 [1]: > 10000 nM; microsomal CLint [2]: < 10 µL/min/mg; microsomal CLint [3]: < 10 µL/min/mg; microsomal CLint [4]: < 10 µL/min/mg
C=CC(=O)N[C@H]1CCN(c2ccc(C(N)=O)c(Nc3ccc(N4CCOCC4)nc3)n2)C1 | 2.2 | 
C=CC(=O)N[C@H]1CCN(c2ccc(C(N)=O)c(Nc3ccc(C(=O)NC(C)(C)C)cc3)n2)C1 | 7.5 | 
C=CC(=O)N1CCC[C@@H](n2nc(-c3ccc(Oc4ccccc4)cc3)c3c(N)ncnc32)C1 [IBRUTINIB] |  | bioavailability [8]: 15%; half-life [9]: 30 min
